Measurements: US11952334B2, “Cocrystals of ubiquinone and compositions comprising them” (CENTER FOR INTELLIGENT RESEARCH IN CRYSTAL ENGINEERING, S.L., priority 2018, dated 2024)

Tests used:
[1] = Particle size analysis (granulometry) by laser dispersion; format: physicochemical; settings: dispersing fluid silicone oil
Protocol: Particle size can be determined, for example by laser dispersion on a Beckman Coulter LS13320 provided with a MLM (Micro Liquid Module) (measure range: 0.4 to 2000 μm; optic model: Fraunhofer.rdf, PIDS included).
Particle size analysis (granulometry) was performed by laser dispersion on a Beckman Coulter LS13320 provided with a MLM (Micro Liquid Module) (measure range: 0.4 to 2000 μm; optic model: Fraunhofer.rdf, PIDS included).
In a beaker about 10 ml of silicone oil and a microspoon of sample were placed. The sample was homogeneized by pipetting it repeatedly with a pasteurized pipette and by subjecting it to ultrasonic treatment (30 KHz; 200 W). The module was cleaned and filled with silicone oil as a dispersing fluid. Before each analysis, an optical alignment of the laser and a measure of the instrument noise was made.

[2] = Dissolution rate of ubiquinone vs cocrystals in FaSSIF-v2 medium (small-scale dissolution assay); format: physicochemical; settings: for Dissolution rate: tablet 8 mm, exposed surface 0.5 cm^2, FaSSIF-v2 medium pH 6.50, 25° C., Noyes-Whitney fit; for Dissolution rate compared with ubiquinone (in words): FaSSIF-v2 medium pH 6.50, 25° C.
Protocol: 1. Dissolution Rate Experiments • Tablet production: tablets of 8 mm diameter were made using a manual hydraulic tablet press (Applied Measurements Ltd, UK) up to a compression weight of 70 Kg. 40-50 mg of compound, ubiquinone or co-crystal, were weighted. The total exposed surface area was 0.5 cm^2. • Medium: aqueous solution containing 106 mM sodium chloride, 28.4 mM monobasic sodium phosphate, and 8.7 mM sodium hydroxide, adjusted with sodium hydroxide to pH 6.50. • Dissolution tests were performed with a small-scale dissolution assay installed in a GlpKa™ titrator (Sirius Analytical Instruments, UK). • Dissolution time and temperature: 2 hours and 25° C. • Procedure: 15 mL of aqueous medium was added into the sample vial containing the tablet. Spectra were recorded every 30 seconds for 1 hour through Sirius D-PAS spectrometer, with a bifurcated optic fibre dip probe (Hellma Analytics). The medium was stirred at a constant rate.
2. HPLC-MS/MS Quantification • HPLC conditions: • Instrument: Agilent HPLC, consisting on two pumps, oven, and an autoinjector. • Column: Teknokroma C8, 150×4.6 mm, 5 μm. • Mobile phase: 5 mM ammonium formate in methanol:isopropanol (90:10). • Elution mode: isocratic. • Column temperature: 35° C. • Flow rate: 1 mL/min. • Injection volume: […]. • Retention time of ubiquinone: 8.5 min. • MS conditions: • Instrument: Linear Ion Trap Quadrupole LC/MS/MS Mass Spectrometer 6500 Q TRAP (AB SCIEX Instruments). • Curtain Gas: 25 p.s.i. • Source temperature: 400° C. • Ion Source Gas 1: 50 p.s.i. • Ion Source Gas 2: 50 p.s.i. • Ion Spray Voltage: 5500 V. • Mode: positive ionization. • Scan mode: MRM. • Transitions for ubiquinone: • Quantification: 880.8 (Q1)—197.1 (Q3); DP=100, CE=25; Dwell time=1000 ms • Confirmation: 880.8 (Q1)—149.3 (Q3); DP=90, CE=45; Dwell time=1000 ms.
Dissolution rates of the cocrystals were determined by monitoring the dissolution profile of the different coformers. Molar extinction coefficients (MEC) of the coformers were measured in water, assuming that they would be nearly identical in FaSSIF aqueous solution.
Dissolution rate of ubiquinone was determined spectrophotometrically. However, as MEC of ubiquinone couldn't be determined in water due to the low solubility of the compound in this medium, concentration of ubiquinone in the dissolution profile was determined by HPLC-MS/MS.
Noyes-Whitney first order exponential equation was fitted to experimental points, providing the dissolution rate values shown in Table 11 below.

Molecule	D10 [1] [μm]	D50 [1] [μm]	D90 [1] [μm]	Mean particle size [1] [μm]	Mode particle size [1] [μm]	Percentage of particles between 9.82 μm and 57.8 μm [1] [%]	Dissolution rate [2] [µg/min]	Dissolution rate compared with ubiquinone (in words) [2]
COC1=C(OC)C(=O)C(C/C=C(\C)CC/C=C(\C)CC/C=C(\C)CC/C=C(\C)CC/C=C(\C)CC/C=C(\C)CC/C=C(\C)CC/C=C(\C)CC/C=C(\C)CCC=C(C)C)=C(C)C1=O [Compound P57, ubiquinone]	5.19	28.4	41.7	26.0	38.0	83.1	0.0012 ± 0.0007	
COC1=C(OC)C(=O)C(C/C=C(\C)CC/C=C(\C)CC/C=C(\C)CC/C=C(\C)CC/C=C(\C)CC/C=C(\C)CC/C=C(\C)CC/C=C(\C)CC/C=C(\C)CCC=C(C)C)=C(C)C1=O.O=C(O)c1ccc(O)cc1 [Compound P57-III, Ubiquinone:4-hydroxybenzoic acid cocrystal (1:1)]	2.51	18.2	36.1	19.0	34.6	70.5	56 ± 8	highest dissolution rate
COC1=C(OC)C(=O)C(C/C=C(\C)CC/C=C(\C)CC/C=C(\C)CC/C=C(\C)CC/C=C(\C)CC/C=C(\C)CC/C=C(\C)CC/C=C(\C)CC/C=C(\C)CCC=C(C)C)=C(C)C1=O.COC1=C(OC)C(=O)C(C/C=C(\C)CC/C=C(\C)CC/C=C(\C)CC/C=C(\C)CC/C=C(\C)CC/C=C(\C)CC/C=C(\C)CC/C=C(\C)CC/C=C(\C)CCC=C(C)C)=C(C)C1=O.Oc1ccc(O)cc1 [Compound P57-VI, Ubiquinone:hydroquinone (2:1)]	1.69	17.0	34.6	17.2	31.5	58.3		
COC1=C(OC)C(=O)C(C/C=C(\C)CC/C=C(\C)CC/C=C(\C)CC/C=C(\C)CC/C=C(\C)CC/C=C(\C)CC/C=C(\C)CC/C=C(\C)CC/C=C(\C)CCC=C(C)C)=C(C)C1=O.COC1=C(OC)C(=O)C(C/C=C(\C)CC/C=C(\C)CC/C=C(\C)CC/C=C(\C)CC/C=C(\C)CC/C=C(\C)CC/C=C(\C)CC/C=C(\C)CC/C=C(\C)CCC=C(C)C)=C(C)C1=O.Cc1cc(O)cc(O)c1.Cc1cc(O)cc(O)c1.Cc1cc(O)cc(O)c1 [Compound P57-VII, Ubiquinone:orcinol cocrystal (2:3)]	2.09	23.5	35.5	20.9	31.5	75.5	106 ± 23	highest dissolution rate
COC1=C(OC)C(=O)C(C/C=C(\C)CC/C=C(\C)CC/C=C(\C)CC/C=C(\C)CC/C=C(\C)CC/C=C(\C)CC/C=C(\C)CC/C=C(\C)CC/C=C(\C)CCC=C(C)C)=C(C)C1=O.COC1=C(OC)C(=O)C(C/C=C(\C)CC/C=C(\C)CC/C=C(\C)CC/C=C(\C)CC/C=C(\C)CC/C=C(\C)CC/C=C(\C)CC/C=C(\C)CC/C=C(\C)CCC=C(C)C)=C(C)C1=O.O.Oc1cc(O)cc(O)c1 [Compound P57-VIII, Ubiquinone:phloroglucinol monohydrate cocrystal (2:1:1)]	9.46	22.2	34.0	22.0	31.5	88.9	3.5 ± 0.4	
Ubiquinone:resorcinol cocrystal (2:1) [Compound P57-V]				14.5	31.5	52.9	5.7 ± 0.8	
